Measured values: patent US20220227729A1, “IDENTIFICATION AND USE OF KRAS INHIBITORS” (Bayer Aktiengesellschaft, priority 2019, published 2022)

How the values were obtained:
KRAS^G12C = KRAS^G12C (Homo sapiens, UniProt P01116, G12C); experiment: KRAS G12C activation by SOS1cat assay (On-assay), HTRF; settings: SOS1cat mediated loading of GST-KRAS G12C-GDP with fluorescent GTP analogue; 180 min preincubation; 20° C.; read-out: IC50 value biochemical KRAS^G12C activation assay
Description: (§1) Preparation of test compound dilutions. A 100-fold concentrated solution of the test compound (50 nL) in DMSO was transferred to microtiter test plates (384 or 1,536 wells, Greiner Bio-One, Germany) using either a Hummingbird liquid handler (Digilab, MA, USA) or an Echo acoustic system (Labcyte, CA, USA). Plates were sealed with adhesive foil or heat-sealed and stored at −20° C. until use. Serial dilutions of test compounds were prepared in 100% DMSO using a Precision Pipetting System (BioTek, USA).
(§2) Measurement and evaluation of inhibition data, calculation of IC50 values. Homogeneous time-resolved fluorescence (HTRF) was measured with a PHERAstar reader (BMG, Germany) using the HTRF module (excitation: 337 nm; emission 1: 620 nm, emission 2: 665 nm). The ratio of the emissions at 665 and 620 nm was used as the specific signal for further evaluation. The data were normalized using the controls: DMSO=0% inhibition, inhibition control wells with inhibitor control solution=100% inhibition. Compounds were tested in duplicates at up to 11 concentrations (e.g. 20 μM, 5.7 μM, 1.6 μM, 0.47 μM, 0.13 μM, 38 nM, 11 nM, 3.1 nM, 0.89 nM, 0.25 nM and 0.073 nM). IC50 values were calculated using a four-parameter fit, with a commercial software package (Genedata Screener, Switzerland).
(§3) KRAS^G12C activation by SOS1^cat assay (“On-assay”). This assay quantifies SOS1^cat mediated loading of KRAS^G12C-GDP with a fluorescent GTP analogue. Detection of successful loading was achieved by measuring resonance energy transfer from anti-GST-terbium (FRET donor) bound to GST-KRAS^G12c to the loaded fluorescent GTP analogue (FRET acceptor). The fluorescent GTP analogue EDA-GTP-DY-647P1 [2′/3′-O-(2-aminoethyl-carbamoyl)guanosine-5′-triphosphate labelled with DY-647P1 (Dyomics GmbH, Germany)] was synthesized by Jena Bioscience (Germany) and supplied as a 1 mM aqueous solution. A KRAS^G12C working solution was prepared in assay buffer [10 mM HEPES pH 7.4 (AppliChem), 150 mM NaCl (Sigma), 5 mM MgCl2 (Sigma), 1 mM DTT (Thermo Fisher), 0.05% BSA Fraction V pH 7.0 (ICN Biomedicals), 0.0025% (v/v) Igepal (Sigma)] containing 100 nM GST-KRAS^G12C and 2 nM anti-GST-terbium (Cisbio, France). A SOS1^cat working solution was prepared in assay buffer containing 20 nM SOS1^cat and 200 nM EDA-GTP-DY-647P1. An inhibitor control solution was prepared in assay buffer containing 200 nM EDA-GTP-DY-647P1 without SOS1^cat. All steps of the assay were performed at 20° C. A volume of 2.5 μL of the KRAS^G12C working solution was added to all wells of the test plate using a Multidrop dispenser (Thermo LabSystems). After 180 min, 2.5 μL of the SOS1^cat working solution was added to all wells, except for the inhibitor control solution wells. After 30 min incubation, HTRF was measured.

[1] = target: recombinant kRas mutant (G12C; C51S; C80L; C118S) (Homo sapiens, UniProt P01116, C118S/C51S/C80L/G12C); experiment: Covalent binding assay, intact mass LC-MS; settings: 25 μM protein, 25 μM compound, room temperature, 2 h
Description: The percentage of covalent adduct formation at KRas G12C was determined by intact mass determination. To this end 25 μM recombinant kRas mutant (G12C; C51S; C80L; C118S) (storage buffer: 50 mM Tris, pH=8; 50 mM NaCl) were incubated with 25 μM of compound (1% v/v final DMSO concentration) at room temperature for 2 h. For LC-MS analysis the reaction was acidified by adding 4 μL of 4% v/v TFA to 20 μL reaction volume.
Liquid chromatography-mass spectrometry (LC-MS) analysis was performed using a Waters SYNAPT G2-S quadrupole time-of-flight mass spectrometer connected to a Waters nanoAcquity UPLC system. Samples were loaded on a 2.1×5 mm mass prep C4 guard column (Waters) and desalted with a short gradient (3 min.) of increasing concentrations of acetonitrile at a flow rate of 100 μL/min. Spectra were analyzed by using MassLynx v4.1 software and deconvoluted with the MaxEnt1 algorithm.
Percent conversion was determined by the ratio of signal intensities of apo-kRas and kRas+inhibitor.

KRAS^WT = KRAS^WT (Homo sapiens, UniProt P01116); experiment: Wild-type KRAS activation by SOS1cat assay, HTRF; settings: SOS1cat mediated loading of GST-KRAS WT-GDP with fluorescent GTP analogue; 50 nM GST-KRAS WT; read-out: IC50 value biochemical KRAS^wt activation assay
Description: as §1, §2, §3
Wild-type KRAS activation by SOS1^cat assay. This assay quantifies human SOS1^cat mediated loading of wild-type GST-KRAS^WT-GDP with a fluorescent GTP analogue. The assay was performed similar to the KRAS^G12C activation by SOS1^cat assay. GST-KRAS^G12C was replaced by GST-KRAS^WT, which was used at 50 nM final concentration.

SMILES | IC50 (KRAS^G12C) | Covalent Binding Assay (% binding) [1] | IC50 (KRAS^WT)
C=CC(=O)N1CCC(c2cc3ccc(-c4c(O)cccc4F)cc3c(=O)[nH]2)C1 (stereo not shown) [Example 1, 7-(2-Fluoro-6-hydroxyphenyl)-3-[1-(prop-2-enoyl)pyrrolidin-3-yl]isoquinolin-1(2H)-one] | 4.7 µM | – | –
C=CC(=O)N1CCC(c2cc3ccc(-c4cccc5ncccc45)cc3c(=O)[nH]2)C1 (stereo not shown) [Example 2, 3-[1-(Prop-2-enoyl)pyrrolidin-3-yl]-7-(quinolin-5-yl)isoquinolin-1(2H)-one] | > 9 µM | 20% | –
C=CC(=O)N1CCC(c2cc3ccc(-c4cccc5[nH]ccc45)cc3c(=O)[nH]2)C1 (stereo not shown) [Example 3, 7-(1H-Indol-4-yl)-3-[1-(prop-2-enoyl)pyrrolidin-3-yl]isoquinolin-1(2H)-one] | > 20 µM | 8% | > 20 µM
C=CC(=O)N1CCC(c2cc3ccc(-c4ccc(F)cc4F)cc3c(=O)[nH]2)C1 (stereo not shown) [Example 4, 7-(2,4-Difluorophenyl)-3-[1-(prop-2-enoyl)pyrrolidin-3-yl]isoquinolin-1(2H)-one] | 5 µM | – | –
C=CC(=O)N1CCC(c2cc3ccc(-c4ccccc4CC)cc3c(=O)[nH]2)C1 (stereo not shown) [Example 5, 7-(2-Ethylphenyl)-3-[1-(prop-2-enoyl)pyrrolidin-3-yl]isoquinolin-1(2H)-one] | 8 µM | 60% | –
C=CC(=O)N1CCC(c2cc3ccc(-c4ccc(F)c(OCC)c4F)cc3c(=O)[nH]2)C1 (stereo not shown) [Example 6, 7-(3-Ethoxy-2,4-difluorophenyl)-3-[1-(prop-2-enoyl)pyrrolidin-3-yl]isoquinolin-1(2H)-one] | > 20 µM | 3% | > 20 µM
C=CC(=O)N1CCC(c2cc3ccc(-c4ccc(F)c(F)c4F)cc3c(=O)[nH]2)C1 (stereo not shown) [Example 7, 3-[1-(Prop-2-enoyl)pyrrolidin-3-yl]-7-(2,3,4-trifluorophenyl)isoquinolin-1(2H)-one] | > 7 µM | 31% | > 20 µM
C=CC(=O)N1CCC(c2cc3ccc(-c4cc(F)cc(F)c4)cc3c(=O)[nH]2)C1 (stereo not shown) [Example 8, 7-(3,5-Difluorophenyl)-3-[1-(prop-2-enoyl)pyrrolidin-3-yl]isoquinolin-1(2H)-one] | – | 0% | –
C=CC(=O)N1CCC(c2cc3cc(OC)c(-c4ncccc4F)cc3c(=O)[nH]2)C1 (stereo not shown) [Example 9, 7-(3-Fluoropyridin-2-yl)-6-methoxy-3-[-1-(prop-2-enoyl)pyrrolidin-3-yl]isoquinolin-1(2H)-one] | > 20 µM | 0% | > 20 µM
C=CC(=O)N1CCC(c2cc3cc(O)c(-c4ncccc4F)cc3c(=O)[nH]2)C1 (stereo not shown) [Example 10, 3-(1-Acryloylpyrrolidin-3-yl)-7-(3-fluoropyridin-2-yl)-6-hydroxy-isoquinolin-1(2H)-one] | > 20 µM | 0% | > 20 µM
C=CC(=O)N1CCC(c2nc3ccc(-c4c(F)cccc4OC)cc3c(=O)[nH]2)C1 (stereo not shown) [Example 11] | 16 µM | 41% | > 20 µM
C=CC(=O)N1CCC(c2nc3ccc(-c4ccccc4F)cc3c(=O)[nH]2)C1 (stereo not shown) [Example 12, 6-(2-Fluorophenyl)-2-[1-(prop-2-enoyl)pyrrolidin-3-yl]quinazolin-4(3H)-one] | 6.2 µM | 70% | > 20 µM
C=CC(=O)N1CCC(c2nc3ccc(-c4ccc(F)cc4F)cc3c(=O)[nH]2)C1 (stereo not shown) [Example 13, 6-(2,4-Difluorophenyl)-2-[1-(prop-2-enoyl)pyrrolidin-3-yl]quinazolin-4(3H)-one] | 8.4 µM | 57% | > 20 µM
C=CC(=O)N1CCC(c2nc3ccc(-c4cccc5ncccc45)cc3c(=O)[nH]2)C1 (stereo not shown) [Example 14, 2-[1-(Prop-2-enoyl)pyrrolidin-3-yl]-6-(quinolin-5-yl)quinazolin-4(3H)-one] | > 20 µM | 22% | > 20 µM
C=CC(=O)N1CCC(c2nc3ccc(-c4ccccc4CC)cc3c(=O)[nH]2)C1 (stereo not shown) [Example 15, 6-(2-Ethylphenyl)-2-[1-(prop-2-enoyl)pyrrolidin-3-yl]quinazolin-4(3H)-one] | 7.3 µM | 52% | > 20 µM
C=CC(=O)N1CCC(c2nc3ccc(-c4cc(Cl)cc(C#N)c4)cc3c(=O)[nH]2)C1 (stereo not shown) [Example 16, 3-Chloro-5-{4-oxo-2-[1-(prop-2-enoyl)pyrrolidin-3-yl]-3,4-dihydroquinazolin-6-yl}benzonitrile] | > 20 µM | 0% | > 20 µM
C=CC(=O)N1CCC(c2nc3ccc(-c4c(O)cccc4F)cc3c(=O)[nH]2)C1 (stereo not shown) [Example 17, 6-(2-Fluoro-6-hydroxyphenyl)-2-[1-(prop-2-enoyl)pyrrolidin-3-yl]quinazolin-4(3H)-one] | 4.9 µM | – | –
C=CC(=O)N1CCC(c2nc3ccc(-c4cncc5ccccc45)cc3c(=O)[nH]2)C1 (stereo not shown) [Example 18, 6-(Isoquinolin-4-yl)-2-[1-(prop-2-enoyl)pyrrolidin-3-yl]quinazolin-4(3H)-one] | > 20 µM | 4% | > 20 µM
C=CC(=O)N1CCC(c2nc3ccc(-c4sc(C)nc4C)cc3c(=O)[nH]2)C1 (stereo not shown) [Example 19, 6-(2,4-dimethyl-1,3-thiazol-5-yl)-2[1-(prop-2-enoyl)pyrrolidin-3-yl]quinazolin-4(3H)-one] | > 20 µM | 4% | > 20 µM
C=CC(=O)N1CCC(c2cc3cc(Cl)c(-c4c(O)cccc4F)cc3c(=O)[nH]2)C1 (stereo not shown) [Example 27, 6-Chloro-7-(2-fluoro-6-hydroxyphenyl)-3-[1-(prop-2-enoyl)pyrrolidin-3-yl]isoquinolin-1(2H)-one] | 16 µM | – | –
C=CC(=O)N1CCC(c2cc3ncc(-c4c(O)cccc4F)cc3c(=O)[nH]2)C1 (stereo not shown) [Example 29, 3-(2-Fluoro-6-hydroxyphenyl)-7-[1-(prop-2-enoyl)pyrrolidin-3-yl]-1,6-naphthyridin-5(6H)-one] | 2.8 µM | 80% | –
C=CC(=O)N1CCC(c2cc3cnc(-c4c(O)cccc4F)cc3c(=O)[nH]2)C1 (stereo not shown) [Example 42, 7-(2-Fluoro-6-hydroxyphenyl)-3-[1-(prop-2-enoyl)pyrrolidin-3-yl]-2,6-naphthyridin-1(2H)-one] | 1.3 µM | 61% | –
